According to BindingDB's records for doi:10.1074/jbc.M113.537704 (Icahn School Of Medicine At Mount Sinai, 2014):

Assays:
[1] = target: EEF1AKMT4-ECE2 readthrough transcript protein (Homo sapiens, UniProt P0DPD8); test: Enzyme Activity Assay; conditions: pH 5.5
Experimental: (§1) Recombinant ECE2 (32.5 ng) with a specific activity of 12 pmol/min/μg protein was generated as described previously. Secreted soluble recombinant ECE1 (30 ng) with a specific activity of 750 pmol/min/μg protein was generated and purified using a protocol similar to that used for ECE2. Solubilized midbrain membranes (10 μg) from wildtype or ECE2 knock-out mice were prepared as described. Enzymatic activity, in the absence or presence of the ECE2 inhibitor S136492 or the ECE1 inhibitor SM19712, was assayed using the synthetic quenched fluorescent substrate McaBk2 (10 μM) at 37 °C with either 0.2 M sodium acetate buffer, pH 5.5, or 50 mM Tris-Cl buffer, pH 7.4, as described previously [Gagnidze et al., J. Med. Chem., 51:3378-3387; Ouimet et al., J. Biol. Chem., 285:34390-34400].

[2] = target: T1, Endothelin-converting enzyme 1 (Homo sapiens, UniProt P42892); test: Enzyme Activity Assay
T1 sequence (P42892 whole entry): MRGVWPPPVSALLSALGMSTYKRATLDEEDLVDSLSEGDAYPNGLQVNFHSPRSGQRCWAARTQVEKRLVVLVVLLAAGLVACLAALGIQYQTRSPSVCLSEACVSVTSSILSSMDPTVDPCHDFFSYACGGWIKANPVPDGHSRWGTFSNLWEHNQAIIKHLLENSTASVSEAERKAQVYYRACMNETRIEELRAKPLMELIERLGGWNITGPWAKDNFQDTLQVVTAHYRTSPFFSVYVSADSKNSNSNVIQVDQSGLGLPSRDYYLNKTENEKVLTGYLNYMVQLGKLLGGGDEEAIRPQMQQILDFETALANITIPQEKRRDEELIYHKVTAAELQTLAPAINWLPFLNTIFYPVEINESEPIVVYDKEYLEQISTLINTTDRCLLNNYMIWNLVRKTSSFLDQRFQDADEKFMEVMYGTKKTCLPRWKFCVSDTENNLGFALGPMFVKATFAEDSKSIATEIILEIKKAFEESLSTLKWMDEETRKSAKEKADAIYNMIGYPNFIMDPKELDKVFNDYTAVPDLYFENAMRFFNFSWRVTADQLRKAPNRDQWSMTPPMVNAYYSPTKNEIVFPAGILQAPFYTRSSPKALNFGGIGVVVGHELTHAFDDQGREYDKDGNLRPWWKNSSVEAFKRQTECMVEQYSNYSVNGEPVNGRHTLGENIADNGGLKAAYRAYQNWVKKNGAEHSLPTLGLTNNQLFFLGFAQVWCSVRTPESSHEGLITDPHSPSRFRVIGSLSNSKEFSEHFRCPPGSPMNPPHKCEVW
Experimental: as §1

Chain of EEF1AKMT4-ECE2 readthrough transcript protein (P0DPD8 whole entry): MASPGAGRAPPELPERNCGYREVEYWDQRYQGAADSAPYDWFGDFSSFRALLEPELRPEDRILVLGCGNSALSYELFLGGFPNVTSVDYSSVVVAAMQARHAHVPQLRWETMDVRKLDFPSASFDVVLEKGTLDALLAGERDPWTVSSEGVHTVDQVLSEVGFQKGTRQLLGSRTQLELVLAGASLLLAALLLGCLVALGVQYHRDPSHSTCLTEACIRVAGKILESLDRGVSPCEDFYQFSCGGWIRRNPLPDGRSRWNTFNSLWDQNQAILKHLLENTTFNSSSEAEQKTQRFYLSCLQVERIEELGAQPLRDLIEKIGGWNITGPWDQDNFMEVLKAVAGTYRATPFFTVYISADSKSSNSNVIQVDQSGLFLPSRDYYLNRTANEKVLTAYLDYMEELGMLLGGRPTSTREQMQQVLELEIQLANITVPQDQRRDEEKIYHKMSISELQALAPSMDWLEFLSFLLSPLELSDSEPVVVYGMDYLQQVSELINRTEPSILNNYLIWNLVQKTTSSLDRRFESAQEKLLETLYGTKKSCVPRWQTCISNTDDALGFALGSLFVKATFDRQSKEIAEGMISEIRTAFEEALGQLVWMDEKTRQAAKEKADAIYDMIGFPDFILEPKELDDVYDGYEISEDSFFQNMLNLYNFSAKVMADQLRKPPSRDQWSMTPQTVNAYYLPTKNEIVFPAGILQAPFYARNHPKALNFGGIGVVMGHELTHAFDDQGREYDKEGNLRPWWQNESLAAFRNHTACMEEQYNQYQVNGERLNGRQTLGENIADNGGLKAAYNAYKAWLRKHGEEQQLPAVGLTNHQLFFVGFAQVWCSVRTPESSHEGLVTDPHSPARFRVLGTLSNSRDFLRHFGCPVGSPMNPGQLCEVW

| IC50 [1] | IC50 ([2]; pH 5.5) | IC50 ([2]; pH 7.4) | SMILES |
| --- | --- | --- | --- |
| 1600 nM | > 100 µM | > 100 µM | Oc1ccccc1/C=C\c1ccc2ccccc2n1 [2-(2-(quinolin-2-yl)vinyl)phenol] |
| 5 nM | > 100 µM | 1.1 µM | Cc1[nH]nc(NC(=O)NS(=O)(=O)c2ccc(Cl)cc2)c1C#N [SM19712] |
